The subject of this test is A431 cells. In words: Inhibition of A431 cells by 225-CDR peptides (3H-thymidine). In kind it is cell-based, human. To be noted: 72 hours, FIG. 5. On the procedure: These peptides were dissolved in PBS at a concentration of 1 mg/ml. A431 cells were plated at 1000 cells per well in 96 well plates. Peptides were added at various concentrations. […] Plates were incubated for 72 hours at 37° C. and pulsed overnight with ^3H-thymidine. Cells were harvested and counted in a liquid scintillation counter. Percent inhibition is defined as the decrease in 3-H thymidine incorporation of antibody or peptide treated cells compared to cells grown in the absence of antibody or peptide.

In the case of NYGVH [heavy chain CDR-1], the “inhibition of A431 cells (3H-thymidine incorporation)” value is “inhibited”.

Regarding GVIWSGGNTDYNTPFTSR [heavy chain CDR-2], the “inhibition of A431 cells (3H-thymidine incorporation)” value was “inhibited”.

For the origin of these results see patent US7060808B1, “Humanized anti-EGF receptor monoclonal antibody” (ImClone Systems Incorporated, priority 1995, dated 2006).
